# Measured values taken from patent US10251845B2, “Fatty acid cysteamine conjugates and their use as activators of autophagy” (Catabasis Pharmaceuticals, Inc., priority 2014, dated 2019).
# How the values were obtained:
# [1] = test system: Matrix Metalloproteinase 2 (MMP-2); assay: ELISA of MMP-2 in conditioned media of lung fibroblasts; type: cell-based, human; conditions: NLF, LL29 and LL97A cells, 25 μM, in the presence of TGFβ
# Excerpt: Normal human lung fibroblasts (ScienCell Research Laboratory 3420), lung fibroblasts from idiopathic pulmonary fibrosis (IPF) patients LL29 (AnHa) (ATCC) and LL97A (ALMy) (ATCC) were maintained in DMEM F12 (Gibco 10565) supplemented with 15% fetal bovine serum (FBS) (Gibco 10437-028) plus Pen-Strep (1%) (Gibco 15140-122). Cells were split every 3 to 4 days at 1:2/1:3 dilution each time. The day before the experiment, cells were trypsinized using Trypsin-EDTA (0.05%) (Gibco 25300-054) and plated on 24-well […] at 1×10^5 cells per well.
# Compounds II-3 and I-1 were first solubilized in 100% DMSO as 50 mM solution, and then diluted 1 to 200 in 1% BSA as a 10× stock solution of […], and series stock dilution (1 to 2 dilution) were carried out as needed. […] The total RNA was harvested, and the relative mRNA expression levels were assessed via RT-PCR with HPRT as the internal control. […] Significance was determined by student's t-test in comparison to control.
# Conditioned media were collected at the end of the experiment. The levels of Matrix Metalloproteinase 2 (MMP-2) (R&D System MMP200) and human Tissue Inhibitor of Metalloproteinase 2 (TIMP-2) (R&D System DTM200) were measured according to the manufacturer's instruction. […] The ELISA was measured on a Victor×5 multilabel plate reader (PerkinElmer) at an absorbance of 450 nm with background correction at 550 nm. […]
# [2] = molecular target: ΔF508 CFTR (Homo sapiens, UniProt P13569, DEL508-508); assay: Ussing chamber short circuit current in Fisher Rat Thyroid epithelial cells overexpressing ΔF508-CFTR; type: cell-based; set-up: expressed in transfected cells; host or cells: Fisher Rat Thyroid (FRT) epithelial cells, stably transfected; conditions: FRT cells
# Description: The most prevalent disease causing mutation of the CF transmembrane conductance regulator (CFTR) chloride channel is the deletion of phenylalanine at position 508 in the primary sequence of CFTR (ΔF508-CFTR). This mutation causes a trafficking defect resulting in a severe reduction of ΔF508-CFTR protein at the cell surface. The trafficking defect can be corrected by incubation at low temperature (27° C. overnight) or pharmacologically by small molecules and CFTR correctors. Chloride transport function of Fisher Rat Thyroid (FRT) epithelial cells overexpressing ΔF508-CFTR in monolayers grown on Snapwell™ filter inserts will be monitored as the CFTR agonist evoked short circuit (ISC) current output of an Ussing epithelial voltage clamp apparatus. An objective of this study is to measure the ability of test compounds to restore function to defective ΔF508-CFTR in FRT epithelial cell monolayers.
# Measurement of corrector efficacy is divided into two phases. The initial phase is incubation of epithelia with the test compounds for a period of time (that can range from 2 hours to one or two days) in a 37° C. incubator and the second phase is measurement of epithelial ΔF508-CFTR chloride channel current with an epithelial voltage clamp (Ussing assay). The short circuit current (ISC) is measured under short circuit conditions (0 mV transepithelial potential). The ISC magnitude is an index of corrector efficacy and is compared to vehicle and positive control.
# Cryopreserved FRT cells stably transfected with ΔF508-CFTR cDNA (Pedemonte et al. (2005) J. CLIN. INVEST., 115, p. 2564-2571) were expanded and plated on Snapwell™ filters for measurement of short circuit current in an Ussing apparatus (Physiologic Instruments, Inc., Sand Diego, Calif.). Cells were grown in Coon's modification of Ham's F-12 media supplemented with zeocin and G-418.
# To conduct the assay, a compound of the invention was solubilized as follows: • 1) Prepare 25 mM stock solution in 100% DMSO. • 2) Dilute 12 μL of 25 mM stock solution in 1.20 mL of FBS to make 250 μM intermediate dilution 10× stock (1% DMSO, 99% FBS). Gently vortex all solutions until the solution becomes clear. • 3) Prepare final dilution of 10 μM in 10 mL of Coon's media per well (4 wells×2 mL per well bottom+0.2 mL per insert top=8.8 mL and 1.2 mL reserve for handling losses) by addition of 400 μL of 10× stock and 600 μL of 10× carrier (1% DMSO, 99% FBS) to 9000 μL of Coon's media.
# For this example, the test compound was solubilized and added to the appropriate inserts of Ussing chambers (n=4 for each test compound, final test concentration of 10 μM). A DMSO vehicle control and a positive control (VX-809 at 3 μM) were also used. For this particular example, all the test articles, including the positive control, were incubated with the cells for a period of 4 hours. The FRT cell monolayers grown on Snapwell™ filter inserts were transferred to Physiologic Instruments Ussing recording chambers (Physiologic Instruments, Inc., San Diego, Calif.) and superfused with HB-PS on the basolateral side and 78CF-PS on the apical side. One or more 6-channel or 8-channel Physiologic Instruments VCC MC6 or VCC MC8 epithelial voltage clamps were then used in combination to record the short circuit current (ISC) during the entire run. To initiate the ISC measurement, amphotericin (100 μM) was added to the basolateral side of the Snapwell™ filter insert to permeabilize the epithelial cells for 15 min. Forskolin (10 μM), IBMX (100 μM), Genistein (20 μM) and the CFTRinh-172 (20 μM) were added sequentially after the following incubation periods (15 min, 20 min, 10 min, 15 min and 15 min respectively). Data acquisition and analyses were performed using iWorx data acquisition hardware and Labscribe 2 software (iWorx, Dover, N.H.). […]
# [3] = II-3 (10 μM)+VX-809 (3 μM)+VX-770 (100 nM), 24 hours, positive control VX-809+VX-770 = 100%
# Sequence of ΔF508 CFTR (P13569 with tags, fused parts or gaps DEL508-508): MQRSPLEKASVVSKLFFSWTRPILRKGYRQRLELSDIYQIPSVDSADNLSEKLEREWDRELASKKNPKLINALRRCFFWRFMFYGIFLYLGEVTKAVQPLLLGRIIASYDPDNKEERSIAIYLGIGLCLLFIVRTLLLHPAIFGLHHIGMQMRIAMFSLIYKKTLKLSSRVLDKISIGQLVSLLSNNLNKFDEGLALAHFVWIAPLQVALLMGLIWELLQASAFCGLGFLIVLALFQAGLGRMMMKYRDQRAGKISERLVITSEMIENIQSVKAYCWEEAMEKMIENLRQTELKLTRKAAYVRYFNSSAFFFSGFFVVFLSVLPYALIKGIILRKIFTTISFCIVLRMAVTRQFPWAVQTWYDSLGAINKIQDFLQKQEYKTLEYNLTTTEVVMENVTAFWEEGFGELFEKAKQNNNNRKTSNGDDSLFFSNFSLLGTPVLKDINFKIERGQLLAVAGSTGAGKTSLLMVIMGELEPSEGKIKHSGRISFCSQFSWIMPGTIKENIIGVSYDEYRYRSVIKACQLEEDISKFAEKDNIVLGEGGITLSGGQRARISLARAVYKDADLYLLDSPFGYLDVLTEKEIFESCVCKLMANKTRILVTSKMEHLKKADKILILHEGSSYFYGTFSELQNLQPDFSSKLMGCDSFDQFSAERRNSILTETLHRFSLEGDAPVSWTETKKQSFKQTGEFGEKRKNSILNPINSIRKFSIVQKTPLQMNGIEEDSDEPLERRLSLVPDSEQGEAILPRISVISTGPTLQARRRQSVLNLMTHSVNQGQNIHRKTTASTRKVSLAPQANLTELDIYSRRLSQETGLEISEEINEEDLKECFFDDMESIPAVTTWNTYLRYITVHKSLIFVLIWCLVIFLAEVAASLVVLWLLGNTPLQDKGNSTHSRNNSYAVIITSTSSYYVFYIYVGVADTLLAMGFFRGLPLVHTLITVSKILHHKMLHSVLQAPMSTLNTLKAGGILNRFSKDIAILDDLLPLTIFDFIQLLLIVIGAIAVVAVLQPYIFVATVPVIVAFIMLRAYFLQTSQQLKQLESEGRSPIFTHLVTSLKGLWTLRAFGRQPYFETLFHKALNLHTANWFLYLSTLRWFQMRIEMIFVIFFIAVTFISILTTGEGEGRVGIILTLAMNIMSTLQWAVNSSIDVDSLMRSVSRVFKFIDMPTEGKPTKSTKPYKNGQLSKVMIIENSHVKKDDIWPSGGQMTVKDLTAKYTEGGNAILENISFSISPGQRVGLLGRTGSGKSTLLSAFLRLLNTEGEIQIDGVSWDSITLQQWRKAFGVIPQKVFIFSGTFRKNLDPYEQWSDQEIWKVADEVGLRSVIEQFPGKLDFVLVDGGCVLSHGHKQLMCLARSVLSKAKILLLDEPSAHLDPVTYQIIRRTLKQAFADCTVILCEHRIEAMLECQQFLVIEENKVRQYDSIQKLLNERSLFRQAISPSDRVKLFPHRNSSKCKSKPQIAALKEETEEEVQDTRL
smiles,measurement,setting,value
"CC/C=C\C/C=C\C/C=C\C/C=C\C/C=C\C/C=C\CCC(=O)NCCSSC(C)(C)CNC(=O)c1cccnc1 [II-3, N-(2-((2-((4Z,7Z,10Z,13Z,16Z,19Z)-docosa-4,7,10,13,16,19-hexaenamido)ethyl)disulfanyl)-2-methylpropyl)nicotinamide]",MMP-2 level in conditioned media,[1],marked reduction
same,short circuit current trace,"[2]; 10 μM with VX-770 or VX-809+VX-770, 24 hours",functionally active
same,steady state response upon the addition of Forskolin,"[2]; II-3 (10 μM)+VX-770 compared with vehicle+VX-770, 24 hours",modest response
same,"steady state response upon the addition of Forskolin, % of control",[2]; [3],143.6%
same,"steady state response upon the addition of the CFTRinh-172, % of control",[2]; [3],144.0%
